# Measured values: patent US9656962B2, “Ring-contracted morphinans and the use thereof” (Purdue Pharma L.P., priority 2013, dated 2017)
# Target: μ-opioid receptor (Homo sapiens (Human), UniProt P35372)
# Experiment: μ-opioid receptor [35S]GTPγS functional assay, HEK-293 cells (Table 6)
# Type: biochemical
# Conditions: for Emax: relative to DAMGO; for EC50: μ GTP
# Experimental: μ-Opioid Receptor Functional Assay Procedures: [^35S]GTPγS functional assays were conducted using freshly thawed μ-receptor membranes prepared in-house from a cell line expressing recombinant μ opioid receptor in a HEK-293, CHO or U-2 OS cell background, or purchased from a commercial source (Perkin Elmer, Shelton, Conn.; or DiscovRx, Fremont, Calif.). Assay reactions were prepared by sequentially adding the following reagents to binding buffer (100 mM NaCl, 10 mM MgCl2, 20 mM HEPES, pH 7.4) on ice (final concentrations indicated): membrane protein (0.026 mg/mL), saponin ([…]), GDP ([…]) and [^35S]GTPγS (0.20 nM; Perkin Elmer, Shelton, Conn.). The prepared membrane solution (190 μl/well) was transferred to 96-shallow well polypropylene plates containing 10 μl of 20× concentrated stock solutions of the agonist [D-Ala^2, N-methyl-Phe^4 Gly-ol^5]-enkephalin (DAMGO) prepared in dimethyl sulfoxide (DMSO). Plates were incubated for 30 min at about 25° C. with shaking Reactions were terminated by rapid filtration onto 96-well Unifilter GF/B filter plates (Perkin Elmer, Shelton, Conn.) using a 96-well tissue harvester (Perkin Elmer, Shelton, Conn.) followed by three filtration washes with 200 μl of ice-cold wash buffer (10 mM NaH2PO4, 10 mM Na2HPO4, pH 7.4). Filter plates were subsequently dried at 50° C. for 2-3 hours. BetaScint scintillation cocktail (Perkin Elmer, Shelton, Conn.) was added (50 μl/well) and plates were counted using a Packard Top-Count for 1 min/well. Data were analyzed using the sigmoidal dose-response curve fitting functions in GraphPad PRISM v. 3.0, or an in-house function for non-linear, sigmoidal dose-response curve-fitting. [^35S]GTPγS functional assays can also be conducted using freshly thawed μ-receptor membranes prepared from a cell line expressing recombinant μ opioid receptor in a CHO-K1 cell background.
# μ GTP Emax (%) is the maximal effect elicited by a compound relative to the effect elicited by DAMGO, a standard μ agonist. Generally, the μ GTP Emax (%) value measures the efficacy of a compound to treat or prevent pain or other Conditions.
# The following TABLE 6 provides results on the activity response of certain Compounds of the Invention at the μ- and κ-opioid receptors determined as described above using HEK-293 cells.
SMILES,Emax [%],EC50 (bound given in μM) [µM],EC50 [µM]
"O=S(=O)(N[C@@H]1C[C@]23CCN(CC4CC4)[C@H](Cc4ccc(O)cc42)[C@]3(O)C1)c1ccccc1 [Compound 95, N-((2R,3aS,4R,9bR)-12-(cyclopropyl-methyl)-3a,8-dihydroxy-1,2,3,3a,4,5-hexahydro-4,9b-(epiminoethano)-cyclopenta[a]naphthalen-2-yl)benzene-sulfonamide]",1,> 20,
"O=C([C@H]1C[C@]23CCN(CC4CC4)[C@H](Cc4ccc(O)cc42)[C@]3(O)C1)N1CCN(c2ccccc2)CC1 [Compound 96, ((2S,3aS,4R,9bS)-12-(cyclopropylmethyl)-3a,8-dihydroxy-1,2,3,3a,4,5-hexahydro-4,9b-(epiminoethano)cyclopenta-[a]naphthalen-2-yl)(4-phenylpiperazin-1-yl)methanone]",14.2 ± 2.5,,0.0144 ± 0.00255
"Cc1ccc(CNC(=O)[C@H]2C[C@]34CCN(C)[C@H](Cc5ccc(O)cc53)[C@]4(O)C2)cc1 [Compound 97, (2S,3aS,4R,9bS)-3a,8-dihydroxy-12-methyl-N-(4-methylbenzyl)-1,2,3,3a,4,5-hexahydro-4,9b-(epiminoethano)cyclo-penta[a]naphthalene-2-carboxamide]",90.3 ± 0.88,,0.0281 ± 0.00154
"CN1CC[C@]23C[C@@H](C(=O)NCc4ccc(O)cc4O)C[C@@]2(O)[C@H]1Cc1ccc(O)cc13 [Compound 98, (2R,3aS,4R,9bS)-N-(2,4-dihydroxy-benzyl)-3a,8-dihydroxy-12-methyl-1,2,3,3a,4,5-hexahydro-4,9b-(epiminoethano)cyclopenta[a]naphthalene-2-carboxamide]",26.7 ± 0.67,,1.29 ± 0.223
"CN1CC[C@]23C[C@@H](C(=O)NCc4ccc(Cl)c(Cl)c4)C[C@@]2(O)[C@H]1Cc1ccc(O)cc13 [Compound 99, (2R,3aS,4R,9bS)-N-(3,4-dichlorobenzyl)-3a,8-dihydroxy-12-methyl-1,2,3,3a,4,5-hexahydro-4,9b-(epiminoethano)-cyclopenta[a]naphthalene-2-carboxamide]",73.3 ± 1.2,,0.244 ± 0.0295
"CN1CC[C@]23C[C@@H](C(=O)NCCc4ccccc4)C[C@@]2(O)[C@H]1Cc1ccc(O)cc13 [Compound 100, (2R,3aS,4R,9bS)-3a,8-dihydroxy-12-methyl-N-phenethyl-1,2,3,3a,4,5-hexahydro-4,9b-(epiminoethano)cyclo-penta[a]naphthalene-2-carboxamide]",50.3 ± 0.33,,1.1 ± 0.188
"CN1CC[C@]23C[C@H](C(=O)NCc4ccc(Cl)c(Cl)c4)C[C@@]2(O)[C@H]1Cc1ccc(O)cc13 [Compound 101, (2S,3aS,4R,9bS)-N-(3,4-dichlorobenzyl)-3a,8-dihydroxy-12-methyl-1,2,3,3a,4,5-hexahydro-4,9b-(epiminoethano)cyclo-penta[a]naphthalene-2-carboxamide]",96.7 ± 2.19,,0.00158 ± 0.00022
"CC(C)CNC(=O)[C@H]1C[C@]23CCN(C)[C@H](Cc4ccc(O)cc42)[C@]3(O)C1 [Compound 102, (2S,3aS,4R,9bS)-3a,8-dihydroxy-N-isobutyl-12-methyl-1,2,3,3a,4,5-hexahydro-4,9b-(epiminoethano)cyclo-penta[a]naphthalene-2-carboxamide]",49.5 ± 4.94,,0.655 ± 0.128
"CN1CC[C@]23C[C@@H](C(=O)NCc4ccc(Cl)cc4Cl)C[C@@]2(O)[C@H]1Cc1ccc(O)cc13 [Compound 103, (2R,3aS,4R,9bS)-N-(2,4-dichlorobenzyl)-3a,8-dihydroxy-12-methyl-1,2,3,3a,4,5-hexahydro-4,9b-(epiminoethano)cyclo-penta[a]naphthalene-2-carboxamide]",68 ± 9.54,,0.389 ± 0.0733
"Cc1ccc(CNC(=O)[C@@H]2C[C@]34CCN(C)[C@H](Cc5ccc(O)cc53)[C@]4(O)C2)cc1 [Compound 104, (2R,3aS,4R,9bS)-3a,8-dihydroxy-12-methyl-N-(4-methylbenzyl)-1,2,3,3a,4,5-hexahydro-4,9b-(epiminoethano)cyclo-penta[a]naphthalene-2-carboxamide]",52 ± 3.51,,2.93 ± 1.08
"CN1CC[C@]23C[C@H](C(=O)NCc4ccc(Cl)cc4Cl)C[C@@]2(O)[C@H]1Cc1ccc(O)cc13 [Compound 107, (2S,3aS,4R,9bS)-N-(2,4-dichlorobenzyl)-3a,8-dihydroxy-12-methyl-1,2,3,3a,4,5-hexahydro-4,9b-(epiminoethano)cyclo-penta[a]naphthalene-2-carboxamide]",94.7 ± 0.33,,0.0108 ± 0.00083
"CN1CC[C@]23C[C@H](NC(=O)c4ccccc4)C[C@@]2(O)[C@H]1Cc1ccc(O)cc13 [Compound 109, N-((2S,3aS,4R,9bR)-3a,8-dihydroxy-12-methyl-1,2,3,3a,4,5-hexahydro-4,9b-(epiminoethano)cyclopenta[a]naphthalen-2-yl)benzamide]",70.4 ± 0.98,,0.0804 ± 0.0141
"CN1CC[C@]23C[C@@H](NC(=O)c4ccccc4)C[C@@]2(O)[C@H]1Cc1ccc(O)cc13 [Compound 110, N-((2R,3aS,4R,9bR)-3a,8-dihydroxy-12-methyl-1,2,3,3a,4,5-hexahydro-4,9b-(epiminoethano)cyclopenta[a]naphthalen-2-yl)benzamide]",35.2 ± 0.76,,8.41 ± 0.956
"CN1CC[C@]23C[C@@H](C(=O)N4CCOCC4)C[C@@]2(O)[C@H]1Cc1ccc(O)cc13 [Compound 111, ((2R,3aS,4R,9bS)-3a,8-dihydroxy-12-methyl-1,2,3,3a,4,5-hexahydro-4,9b-(epiminoethano)cyclopenta[a]naphthalen-2-yl)(morpholino)methanone]",35.1 ± 1.06,,3.17 ± 0.493
"CN1CC[C@]23C[C@@H](C(=O)NCCN4CCOCC4)C[C@@]2(O)[C@H]1Cc1ccc(O)cc13 [Compound 112, (2R,3aS,4R,9bS)-3a,8-dihydroxy-12-methyl-N-(2-morpholinoethyl)-1,2,3,3a,4,5-hexahydro-4,9b-(epimino-ethano)cyclopenta[a]naphthalene-2-carboxamide]",38.8 ± 1.54,,10.2 ± 0.241
"CN(C)CCN(C)C(=O)[C@@H]1C[C@]23CCN(C)[C@H](Cc4ccc(O)cc42)[C@]3(O)C1 [Compound 113, (2R,3aS,4R,9bS)-N-(2-(dimethylamino)-ethyl)-3a,8-dihydroxy-N,12-dimethyl-1,2,3,3a,4,5-hexahydro-4,9b-(epimino-ethano)cyclopenta[a]naphthalene-2-carboxamide]",-1,> 20,
"CN1CC[C@]23C[C@@H](C(=O)NCCO)C[C@@]2(O)[C@H]1Cc1ccc(O)cc13 [Compound 114, (2R,3aS,4R,9bS)-3a,8-dihydroxy-N-(2-hydroxyethyl)-12-methyl-1,2,3,3a,4,5-hexahydro-4,9b-(epiminoethano)cyclo-penta[a]naphthalene-2-carboxamide]",23 ± 1.54,,8.44 ± 1.54
"CN1CC[C@]23C[C@H](C(=O)NCCO)C[C@@]2(O)[C@H]1Cc1ccc(O)cc13 [Compound 115, (2S,3aS,4R,9bS)-3a,8-dihydroxy-N-(2-hydroxyethyl)-12-methyl-1,2,3,3a,4,5-hexahydro-4,9b-(epiminoethano)cyclo-penta[a]naphthalene-2-carboxamide]",35 ± 1.14,,0.917 ± 0.131
"Cc1ccc(CNC(=O)[C@H]2C[C@]34CCN(CC5CC5)[C@H](Cc5ccc(C(N)=O)cc53)[C@]4(O)C2)cc1 [Compound 116, (2S,3aS,4R,9bS)-12-(cyclopropylmethyl)-3a-hydroxy-N^2-(4-methylbenzyl)-1,2,3,3a,4,5-hexahydro-4,9b-(epimino-ethano)cyclopenta[a]naphthalene-2,8-dicarboxamide]",23.6 ± 1.05,,0.00345 ± 0.00016
